Assay results published in patent publication US20090155784A1, “ASSESSMENT OF ASTHMA AND ALLERGEN-DEPENDENT GENE EXPRESSION” (Wyeth, priority 2007, published 2009).

Assays:
[1] = system: PBMCs from asthma subjects; assay: HG-U133A transcriptional profiling of allergen-stimulated PBMCs of asthma subjects (AOS), with and without cPLA2 inhibitor, 6 days culture; clustering and Ingenuity pathway analysis; type: cell-based, human
Excerpt: PBMCs were stimulated in vitro with a cocktail containing 4 different allergens from house dust mite, ragweed and cat. Recombinant allergens, Der p1, Der f2, Fel d1 (Indoor Biotech, Charlottesville, Va.) and natural ragweed allergen (Allergy Lab, Seattle, Wash.) were selected and screened for endotoxin contamination (LAL Endotoxin Test, Catalog #HIT302, sensitivity, 0.0001 Eu/ml, Cell Sciences, Canton, Mass.). The sensitivity of the subjects was unknown but the allergens were chosen based on the estimate that 80% of allergic individuals are believed to react to one or more of these allergens. Culture medium contained RPMI-1640 (Sigma) with 10% heat inactivated FCS (Sigma St. Louis, Mo.) and 100 unit/mL Penicillin and […] Streptomycin and 0.292 mg/mL Glutamine (GIBCO RL Invitrogen, Carlsbad, Calif.). The final allergen cocktail concentrations in culture medium were: Der p1 and Der f2 (dust mite), 1 mg/ml; Fel d1 (cat), 1.25 mg/ml; ragweed, 125 mg/ml. The total level of endotoxin contamination in culture medium was 0.057 Eu/ml. The cPLA2 inhibitor 4-{3-[1-benzhydryl-5-chloro-2-(2-{[(2,6-dimethylbenzyl)sulfonyl]amino}ethyl)-1H-indol-3-yl]propyl}benzoic acid was used at a concentration of 0.3 μM/ml. Zileuton, a 5-lipoxygenase inhibitor, was added at a concentration of 5 μM. The inhibitory activity of both the cPLA2 inhibitor and Zileuton samples were verified in a human whole blood assay. After 6 days in culture approximately 200 μL of supernatant was removed using an 8-channel pipettor without disturbing the cell pellet and placed into a collection plate for cytokine ELISA assays. To the remaining cell pellet 100 μL of RLT lysis buffer containing 1% beta-mercaptoethanol was added and snap frozen for RNA purification.
RNA was purified using QIA shredders and Rneasy mini kits (Qiagen, Valencia, Calif.). PBMC pellets frozen in RLT lysis buffer containing 1% β-mercaptoethanol were thawed and processed for total RNA isolation using the QIA shredder and RNeasy mini kit. A phenol:chloroform extraction was then performed, and the RNA was repurified using the RNeasy mini kit reagents. Eluted RNA was quantified using a Spectramax96 well plate UV reader (Molecular Devices, Sunnyvale, Calif., USA) monitoring A260/280 OD values. The quality of each RNA sample was assessed by capillary electrophoresis alongside an RNA molecular weight ladder on the Agilent 2100 bioanalyzer (Agilent Technologies, Palo Alto, Calif., USA). RNA samples were assigned quality values of intact (distinct 18S and 28S bands); partially degraded (discernible 18S and 28S bands with presence of low molecular weight bands) or completely degraded (no discernible 18S and 28S bands).
Labeled targets for oligonucleotide arrays were prepared using a modification of the procedure described by Lockhart et al. (Lockhart (1996) Nat. Biotechnol. 14:1675-80). Labeled targets were hybridized to the HG-U133A Affymetrix GeneChip Array as described in the Affymetrix technical manual. Eleven biotinylated control transcripts ranging in abundance from 3 parts per million (ppm) to 100 ppm were spiked into each sample to function as a standard curve (Hill (2001) Genome Biol. 2:RESEARCH0055). GeneChip MAS 5.0 software was used to evaluate the hybridization intensity, compute the signal value for each probe set and make an absent/present call.
GeneChips were required to pass the pre-set quality control criteria that the RNA quality metric required a 5′:3′ ratio. Two asthma subjects were excluded from the study due to failure to meet the RNA quality metric and 2 GeneChips from the group treated with cPLA2a inhibitor were excluded for the same reason. The signal value for each probe set was converted into a frequency value representative of the number of transcripts present in 10^6 transcripts by reference to the standard curve (Hill (2001) Genome Biol. 2:RESEARCH0055). […]

[2] = system: PBMCs from asthma subjects; assay: HG-U133A baseline gene expression in PBMCs of asthma subjects (AOS), cPLA2 inhibitor in the absence of allergen (no AG); type: cell-based, human
Excerpt: PBMCs were stimulated in vitro with a cocktail containing 4 different allergens from house dust mite, ragweed and cat. Recombinant allergens, Der p1, Der f2, Fel d1 (Indoor Biotech, Charlottesville, Va.) and natural ragweed allergen (Allergy Lab, Seattle, Wash.) were selected and screened for endotoxin contamination (LAL Endotoxin Test, Catalog #HIT302, sensitivity, 0.0001 Eu/ml, Cell Sciences, Canton, Mass.). The sensitivity of the subjects was unknown but the allergens were chosen based on the estimate that 80% of allergic individuals are believed to react to one or more of these allergens. Culture medium contained RPMI-1640 (Sigma) with 10% heat inactivated FCS (Sigma St. Louis, Mo.) and 100 unit/mL Penicillin and […] Streptomycin and 0.292 mg/mL Glutamine (GIBCO RL Invitrogen, Carlsbad, Calif.). The final allergen cocktail concentrations in culture medium were: Der p1 and Der f2 (dust mite), 1 mg/ml; Fel d1 (cat), 1.25 mg/ml; ragweed, 125 mg/ml. […]
RNA was purified using QIA shredders and Rneasy mini kits (Qiagen, Valencia, Calif.). […] Eluted RNA was quantified using a Spectramax96 well plate UV reader (Molecular Devices, Sunnyvale, Calif., USA) monitoring A260/280 OD values. The quality of each RNA sample was assessed by capillary electrophoresis alongside an RNA molecular weight ladder on the Agilent 2100 bioanalyzer (Agilent Technologies, Palo Alto, Calif., USA). […]

Question: With Cc1cccc(C)c1CS(=O)(=O)NCCc1c(CCCc2ccc(C(=O)O)cc2)c2cc(Cl)ccc2n1C(c1ccccc1)c1ccccc1 [cPLA2 inhibitor, 4-{3-[1-benzhydryl-5-chloro-2-(2-{[(2,6-dimethylbenzyl)sulfonyl]amino}ethyl)-1H-indol-3-yl]propyl}benzoic acid] as the molecule, how does the “all T cell responsive and cell cycle genes in the pathway (Network 1, FIG. 3A/3C)” value ([1]; allergen + inhibitor) read?
Answer: Its value is “significantly changed towards the levels in the healthy subject group”.

Question: And the “allergen-induced increase in expression of T cell genes ZAP70, CD28, CD3D” value ([1]; allergen + inhibitor)?
Answer: The value was “abolished”.

Question: And the “genes initially down regulated in asthma samples in the presence of allergen, such as sialoadhesin (SN), CD84, TIMP3” value ([1]; allergen + inhibitor)?
Answer: The value was “up-regulated in the presence of inhibition”.

Question: What about the “genes up-regulated in asthma samples in response to allergen, such as ZAP70, LCK, MCM2” value ([1]; allergen + inhibitor) of the same molecule?
Answer: The value was “reduced to the levels seen in the allergen treated healthy controls”.

Question: And the “other immune related genes: CD28, CD3D, IL-21R, HMGB1” value ([1]; allergen + inhibitor)?
Answer: Its value is “downregulated”.

Question: What about the “every single probe in Network 1 in the asthmatic population” value ([1]; allergen + inhibitor, FIG. 3C) of the same molecule?
Answer: The value was “altered level of expression”.

Question: What about the “asthma specific gene expression (167 allergen-asthma specific probesets) in the presence of the inhibitor” value ([1]; compared to the allergen treatment alone, 0.3 μM/ml) of the same molecule?
Answer: Its value is “altered”.

Question: And the “Fold Change AOS Allergen vs. cPLA2 inhibitor” value ([1]; gene C10ORF3, probeset 218542_at)?
Answer: The value was −1.255.

Question: And the “Fold Change AOS Allergen vs. cPLA2 inhibitor” value ([1]; gene CDC2, probeset 203213_at)?
Answer: Its value is −1.163.

Question: What about the “Fold Change AOS Allergen vs. cPLA2 inhibitor” value ([1]; gene CHIT1, probeset 208168_s_at) of the same molecule?
Answer: The value was 2.803.

Question: What about the “Fold Change AOS Allergen vs. cPLA2 inhibitor” value ([1]; gene DAB2, probeset 201279_s_at) of the same molecule?
Answer: The value was 2.442.

Question: What about the “Fold Change AOS Allergen vs. cPLA2 inhibitor” value ([1]; gene DAB2, probeset 210757_x_at) of the same molecule?
Answer: Its value is 2.524.

Question: What about the “Fold Change AOS Allergen vs. cPLA2 inhibitor” value ([1]; gene DUSP4, probeset 204014_at) of the same molecule?
Answer: The value was −1.393.

Question: And the “Fold Change AOS Allergen vs. cPLA2 inhibitor” value ([1]; gene DUSP4, probeset 204015_s_at)?
Answer: Its value is −1.344.

Question: What about the “Fold Change AOS Allergen vs. cPLA2 inhibitor” value ([1]; gene FABP3, probeset 205738_s_at) of the same molecule?
Answer: Its value is 2.574.

Question: And the “Fold Change AOS Allergen vs. cPLA2 inhibitor” value ([1]; gene FLJ23311, probeset 219990_at)?
Answer: Its value is −1.362.

Question: What about the “Fold Change AOS Allergen vs. cPLA2 inhibitor” value ([1]; gene GM2A, probeset 33646_g_at) of the same molecule?
Answer: The value was 2.499.

Question: What about the “Fold Change AOS Allergen vs. cPLA2 inhibitor” value ([1]; gene GM2A, probeset 209727_at) of the same molecule?
Answer: The value was 2.415.

Question: What about the “Fold Change AOS Allergen vs. cPLA2 inhibitor” value ([1]; gene HS3ST2, probeset 219697_at) of the same molecule?
Answer: Its value is 4.363.

Question: And the “Fold Change AOS Allergen vs. cPLA2 inhibitor” value ([1]; gene ME1, probeset 204059_s_at)?
Answer: Its value is 2.986.

Question: And the “Fold Change AOS Allergen vs. cPLA2 inhibitor” value ([1]; gene MELK, probeset 204825_at)?
Answer: Its value is −1.228.

Question: And the “Fold Change AOS Allergen vs. cPLA2 inhibitor” value ([1]; gene OIP5, probeset 213599_at)?
Answer: Its value is −1.141.

Question: What about the “Fold Change AOS Allergen vs. cPLA2 inhibitor” value ([1]; gene PAPSS2, probeset 203060_s_at) of the same molecule?
Answer: The value was 2.162.

Question: And the “Fold Change AOS Allergen vs. cPLA2 inhibitor” value ([1]; gene PLEKHB2, probeset 201411_s_at)?
Answer: Its value is 2.51.

Question: What about the “Fold Change AOS Allergen vs. cPLA2 inhibitor” value ([1]; gene POLG, probeset 213007_at) of the same molecule?
Answer: Its value is −1.163.

Question: And the “Fold Change AOS Allergen vs. cPLA2 inhibitor” value ([1]; gene RACGAP1, probeset 222077_s_at)?
Answer: The value was −1.167.

Question: And the “Fold Change AOS Allergen vs. cPLA2 inhibitor” value ([1]; gene RUVBL1, probeset 201614_s_at)?
Answer: The value was −1.215.

Question: And the “Fold Change AOS Allergen vs. cPLA2 inhibitor” value ([1]; gene SLC36A1, probeset 213119_at)?
Answer: The value was 2.385.

Question: And the “Fold Change AOS Allergen vs. cPLA2 inhibitor” value ([1]; gene SLC38A6, probeset 214830_at)?
Answer: The value was 2.908.

Question: And the “Fold Change AOS Allergen vs. cPLA2 inhibitor” value ([1]; gene SLC39A14, probeset 212110_at)?
Answer: The value was −1.323.

Question: What about the “Fold Change AOS Allergen vs. cPLA2 inhibitor” value ([1]; gene SLCO2B1, probeset 203472_s_at) of the same molecule?
Answer: Its value is 2.698.

Question: What about the “Fold Change AOS Allergen vs. cPLA2 inhibitor” value ([1]; gene SLCO2B1, probeset 203473_at) of the same molecule?
Answer: The value was 2.609.

Question: What about the “Fold Change AOS Allergen vs. cPLA2 inhibitor” value ([1]; gene SMC2L1, probeset 204240_s_at) of the same molecule?
Answer: Its value is −1.245.

Question: What about the “Fold Change AOS Allergen vs. cPLA2 inhibitor” value ([1]; gene SN, probeset 219519_s_at) of the same molecule?
Answer: The value was 4.378.

Question: What about the “Fold Change AOS Allergen vs. cPLA2 inhibitor” value ([1]; gene TRIP13, probeset 204033_at) of the same molecule?
Answer: The value was −1.358.

Question: And the “Fold Change AOS Allergen vs. cPLA2 inhibitor” value ([1]; gene UNK_AI859865, probeset 222036_s_at)?
Answer: Its value is −1.203.

Question: And the “Fold Change AOS Allergen vs. cPLA2 inhibitor” value ([1]; gene UNK_BE966236, probeset 201890_at)?
Answer: The value was −1.167.

Question: And the “effect on gene expression in the absence of allergen stimulation, asthmatic population” value [2]?
Answer: Its value is “does not affect gene expression”.
